Several values for one entry are separate records, joined by “and”; a condition that tells them apart may be missing. Equal values may be shown once. Inconclusive results and toxic doses are left out.
Tested on: BDF1 mice, P388 leukemia ip, median survival T/C
Test: NCI In Vivo Anticancer Drug Screen. Data for tumor model P388 Leukemia (intraperitoneal) in B6D2F1 (BDF1) mice
Conditions: endpoint: median survival time, higher = longer survival
In short: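 Vehicle-dosed animals serve as the reference; survival of compound-dosed, tumour-implanted mice is divided by it.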

[1] = dose: 100.0 mg/kg/injection, schedule: Q04DX003 (ip), vehicle: saline
[2] = dose: 200.0 mg/kg/injection, schedule: Q04DX003 (ip), vehicle: saline
[3] = dose: 400.0 mg/kg/injection, schedule: Q04DX003 (ip), vehicle: saline
[4] = dose: 100.0 mg/kg/injection, schedule: Q04DX002 (ip), vehicle: saline with Tween-80
[5] = dose: 200.0 mg/kg/injection, schedule: Q04DX002 (ip), vehicle: saline with Tween-80
[6] = dose: 100.0 mg/kg/injection, schedule: Q04DX003 (ip), vehicle: saline with Tween-80
[7] = dose: 200.0 mg/kg/injection, schedule: Q04DX003 (ip), vehicle: saline with Tween-80
[8] = dose: 100.0 mg/kg/injection, schedule: Q01DX009 (ip), vehicle: saline
[9] = dose: 200.0 mg/kg/injection, schedule: Q01DX009 (ip), vehicle: saline
[10] = dose: 400.0 mg/kg/injection, schedule: Q01DX009 (ip), vehicle: saline
[11] = dose: 6.25 mg/kg/injection, schedule: Q01DX009 (ip), vehicle: saline
[12] = dose: 12.5 mg/kg/injection, schedule: Q01DX009 (ip), vehicle: saline
[13] = dose: 25.0 mg/kg/injection, schedule: Q01DX009 (ip), vehicle: saline

For `CC1CNC(=O)O1` (stereo unspecified), the T/C [1] was 115 % of control, the T/C [2] was 110 % of control and the T/C [3] was 95 % of control.
In the case of `CC1(C)C/C(=C\c2ccccc2)C(=O)c2ccccc21`, the T/C (dose: 25.0 mg/kg/injection, schedule: Q01DX009 (ip), vehicle: water) is reported as 106 % of control, the T/C (dose: 50.0 mg/kg/injection, schedule: Q01DX009 (ip), vehicle: water) is reported as 95 % of control and the T/C (dose: 100.0 mg/kg/injection, schedule: Q01DX009 (ip), vehicle: water) is reported as 106 % of control. For the same compound, the T/C (dose: 200.0 mg/kg/injection, schedule: Q01DX009 (ip), vehicle: water) was 88 % of control and the T/C (dose: 400.0 mg/kg/injection, schedule: Q01DX009 (ip), vehicle: water) was 100 % of control.
In the case of `Nc1nc2c(c(=O)[nH]1)N(C=O)C(CNc1ccc(C(=O)N[C@@H](CCC(=O)O)C(=O)O)cc1)CN2` (stereo partly specified), the T/C (dose: 100.0 mg/kg/injection, schedule: Q01DX009 (ip), vehicle: saline with Tween-80) is reported as 95 % of control, the T/C [1] is reported as 104 % of control and the T/C (dose: 200.0 mg/kg/injection, schedule: Q01DX009 (ip), vehicle: saline with Tween-80) is reported as 95 % of control. For the same compound, the T/C [2] was 104 % of control, the T/C (dose: 400.0 mg/kg/injection, schedule: Q01DX009 (ip), vehicle: saline with Tween-80) was 95 % of control and the T/C [3] was 100 % of control.
For `Oc1ccccc1/C=N\c1nccs1`, the T/C (dose: 25.0 mg/kg/injection, schedule: Q01DX009 (ip), vehicle: Klucel (hydroxypropylcellulose) (HPC)) was 111 % of control, the T/C (dose: 50.0 mg/kg/injection, schedule: Q01DX009 (ip), vehicle: Klucel (hydroxypropylcellulose) (HPC)) was 96 % of control and 109 % of control and the T/C (dose: 100.0 mg/kg/injection, schedule: Q01DX009 (ip), vehicle: Klucel (hydroxypropylcellulose) (HPC)) was 96 % of control and 118 % of control. For the same compound, the T/C (dose: 200.0 mg/kg/injection, schedule: Q01DX009 (ip), vehicle: Klucel (hydroxypropylcellulose) (HPC)) was 122 % of control and 123 % of control.
With `CC(C)(C)S[Si](Cl)(SC(C)(C)C)SC(C)(C)C` the T/C [4] was 119 % of control, the T/C [5] was 103 % of control and the T/C (dose: 400.0 mg/kg/injection, schedule: Q04DX002 (ip), vehicle: saline with Tween-80) was 94 % of control.
`Cc1ccc(CNc2cc(C)ccn2)cc1` was tested, and the T/C (dose: 50.0 mg/kg/injection, schedule: Q04DX003 (ip), vehicle: saline with Tween-80) was 105 % of control, the T/C [6] was 110 % of control and the T/C [7] was 110 % of control.
`CCC(O)Cc1c[nH]c(=O)[nH]c1=O` (stereo unspecified) was tested, and the T/C (dose: 50.0 mg/kg/injection, schedule: Q01DX009 (ip), vehicle: saline) was 90 % of control, the T/C (dose: 50.0 mg/kg/injection, schedule: Q04DX003 (ip), vehicle: saline) was 104 % of control and the T/C [8] was 105 % of control. For the same compound, the T/C [1] was 102 % of control, the T/C [9] was 112 % of control and the T/C [2] was 109 % of control.
In the case of `c1ccc2c(c1)Sc1cnccc1N2CC1CO1` (stereo unspecified), the T/C [1] is reported as 104 % of control, the T/C [2] is reported as 90 % of control and the T/C [3] is reported as 95 % of control.
For `N#Cc1c(N)sc2c1CCCC2`, the T/C [8] was 109 % of control, the T/C [9] was 109 % of control and the T/C [10] was 104 % of control.
With `COc1c2c(c3c(c1OC)c(=O)c1ccccc1n3C)OCO2` the T/C (dose: 45.0 mg/kg/injection, schedule: Q01DX010 (ip), vehicle: carboxymethylcellulose (CMC)) was 90 % of control, the T/C (dose: 90.0 mg/kg/injection, schedule: Q01DX010 (ip), vehicle: carboxymethylcellulose (CMC)) was 104 % of control and the T/C (dose: 180.0 mg/kg/injection, schedule: Q01DX010 (ip), vehicle: carboxymethylcellulose (CMC)) was 95 % of control.
With `C/C(=N/N(C)C)c1nc(N)nc(N)c1-c1ccc(Cl)cc1` the T/C (dose: 25.0 mg/kg/injection, schedule: Q01DX001 (ip), vehicle: saline with Tween-80) was 102 % of control, the T/C (dose: 50.0 mg/kg/injection, schedule: Q01DX001 (ip), vehicle: saline with Tween-80) was 109 % of control and the T/C (dose: 100.0 mg/kg/injection, schedule: Q01DX001 (ip), vehicle: saline with Tween-80) was 90 % of control and 96 % of control.
For `O=C1CN(Cc2ccccc2)CC(=O)N2C(c3ccccc3)CCCN12` (stereo unspecified), the T/C (dose: 50.0 mg/kg/injection, schedule: Q01DX005 (ip), vehicle: saline with Tween-80) was 97 % of control, the T/C (dose: 100.0 mg/kg/injection, schedule: Q01DX005 (ip), vehicle: saline with Tween-80) was 87 % of control and the T/C (dose: 200.0 mg/kg/injection, schedule: Q01DX005 (ip), vehicle: saline with Tween-80) was 92 % of control.
With `O=C(OC(c1ccccc1)c1ccccc1)C(CSC(c1ccccc1)(c1ccccc1)c1ccccc1)NC(c1ccccc1)(c1ccccc1)c1ccccc1` (stereo unspecified) the T/C (dose: 100.0 mg/kg/injection, schedule: Q04DX003 (ip), vehicle: Klucel (hydroxypropylcellulose) (HPC)) was 100 % of control, the T/C (dose: 200.0 mg/kg/injection, schedule: Q04DX003 (ip), vehicle: Klucel (hydroxypropylcellulose) (HPC)) was 109 % of control and the T/C (dose: 400.0 mg/kg/injection, schedule: Q04DX003 (ip), vehicle: Klucel (hydroxypropylcellulose) (HPC)) was 104 % of control.
`C[N+](C)(CC(=O)Nc1ccc(Cl)c(Cl)c1)Cc1ccc(Cl)c(Cl)c1` was tested, and the T/C (dose: 6.25 mg/kg/injection, schedule: Q01DX009 (ip), vehicle: saline with Tween-80) was 120 % of control and the T/C (dose: 12.5 mg/kg/injection, schedule: Q01DX009 (ip), vehicle: saline with Tween-80) was 108 % of control.
For `CC(=O)Nc1ccc(OC(C)=O)cc1C=O`, the T/C (dose: 50.0 mg/kg/injection, schedule: Q04DX002 (ip), vehicle: saline with Tween-80) was 111 % of control, the T/C [4] was 98 % of control and the T/C [5] was 89 % of control.
`CC1CN=C(c2ccc(NC(=O)c3ccc(C(=O)Nc4ccc(C5=NCC(C)N5)cc4)c(N)c3)cc2)N1` (stereo unspecified) was tested, and the T/C (dose: 6.7 mg/kg/injection, schedule: Q04DX003 (ip), vehicle: saline with Tween-80) was 150 % of control, the T/C (dose: 10.0 mg/kg/injection, schedule: Q04DX003 (ip), vehicle: saline with Tween-80) was 163 % of control and the T/C (dose: 15.0 mg/kg/injection, schedule: Q04DX003 (ip), vehicle: saline with Tween-80) was 172 % of control and 177 % of control.
In the case of `O=c1[nH]cc(Br)c2sccc12`, the T/C (dose: 150.0 mg/kg/injection, schedule: Q01DX009 (ip), vehicle: saline) is reported as 90 % of control and the T/C (dose: 225.0 mg/kg/injection, schedule: Q01DX009 (ip), vehicle: saline) is reported as 86 % of control.
With `CCCCCCCCCCCCCCCCCCCC` the T/C (dose: 6.25 mg/kg/injection, schedule: Q04DX003 (ip), vehicle: other) was 100 % of control, the T/C (dose: 12.5 mg/kg/injection, schedule: Q04DX003 (ip), vehicle: other) was 100 % of control and the T/C (dose: 25.0 mg/kg/injection, schedule: Q04DX003 (ip), vehicle: other) was 100 % of control. For the same compound, the T/C (dose: 50.0 mg/kg/injection, schedule: Q01DX009 (ip), vehicle: other) was 100 % of control and the T/C (dose: 100.0 mg/kg/injection, schedule: Q01DX009 (ip), vehicle: other) was 100 % of control.
With `O=S(=O)([O-])[O-].OCCNCCNCC[OH2+].OCCNCCNCC[OH2+].[Cu+2]` the T/C [11] was 94 % of control, the T/C [12] was 100 % of control and the T/C [13] was 94 % of control.
`Cc1c2oc3c(C)ccc(C(=O)NCc4cccnc4)c3nc-2c(C(=O)NCc2cccnc2)c(N)c1=O` was tested, and the T/C [6] was 96 % of control, the T/C [7] was 96 % of control and the T/C (dose: 400.0 mg/kg/injection, schedule: Q04DX003 (ip), vehicle: saline with Tween-80) was 100 % of control.
In the case of `CC(=O)OC/C(=N\Nc1ccc([N+](=O)[O-])cc1[N+](=O)[O-])c1ccccc1`, the T/C (dose: 3.13 mg/kg/injection, schedule: Q01DX001 (ip), vehicle: saline with Tween-80) is reported as 104 % of control, the T/C (dose: 6.25 mg/kg/injection, schedule: Q01DX001 (ip), vehicle: saline with Tween-80) is reported as 100 % of control and the T/C (dose: 12.5 mg/kg/injection, schedule: Q01DX001 (ip), vehicle: saline with Tween-80) is reported as 95 % of control.
For `COC1OC(CO)C(O)C(O)C1O` (stereo unspecified), the T/C [11] was 97 % of control, the T/C [12] was 106 % of control and the T/C [13] was 97 % of control. The T/C [8] was 104 % of control and the T/C [9] was 106 % of control.
`COC(=O)OCCOC(=O)OC` was tested, and the T/C [8] was 100 % of control, the T/C [1] was 95 % of control and the T/C [9] was 110 % of control. The T/C [2] was 100 % of control, the T/C [10] was 100 % of control and the T/C [3] was 100 % of control.
In the case of `Brc1ccc(C#Cc2ccccc2)cc1`, the T/C (dose: 100.0 mg/kg/injection, schedule: Q01DX001 (ip), vehicle: Klucel (hydroxypropylcellulose) (HPC)) is reported as 104 % of control, the T/C (dose: 200.0 mg/kg/injection, schedule: Q01DX001 (ip), vehicle: Klucel (hydroxypropylcellulose) (HPC)) is reported as 108 % of control and the T/C (dose: 400.0 mg/kg/injection, schedule: Q01DX001 (ip), vehicle: Klucel (hydroxypropylcellulose) (HPC)) is reported as 108 % of control.

— PubChem BioAssay AID328 (DTP/NCI, 2004)
